The text below walks through data of patent US8273775B2, “Non-steroidal brassinosteroid mimetic” (priority 2006, dated 2012).

Assay [1] deals with T1, ASKβ (group III) (Arabidopsis thaliana, UniProt O23145).
T1 sequence (O23145 1-431): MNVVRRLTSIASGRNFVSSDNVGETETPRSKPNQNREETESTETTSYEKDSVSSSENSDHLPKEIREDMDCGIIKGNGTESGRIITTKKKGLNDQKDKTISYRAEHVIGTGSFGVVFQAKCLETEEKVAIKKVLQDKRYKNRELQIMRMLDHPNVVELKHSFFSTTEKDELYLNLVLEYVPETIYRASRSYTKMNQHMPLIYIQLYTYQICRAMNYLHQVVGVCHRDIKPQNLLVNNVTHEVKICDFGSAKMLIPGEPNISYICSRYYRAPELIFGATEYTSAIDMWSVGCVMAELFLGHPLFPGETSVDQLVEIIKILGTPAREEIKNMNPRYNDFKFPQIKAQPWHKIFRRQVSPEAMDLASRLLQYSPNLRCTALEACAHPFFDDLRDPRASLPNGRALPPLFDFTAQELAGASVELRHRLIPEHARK
Put plainly: ASK kinase assay with MBP as substrate, ASKβ. Format: biochemical. The note with it: 10 μM abrasin. As to the method: Coomassie staining was used as a loading control. b, Autoradiography of kinase assays with nine ASKs with MBP as a substrate in the presence or absence of 10 μM abrasin.
For in vitro kinase assays, MBP, MBP-BES1, and MBP-bes1 (20 ng each) were incubated with GST-BIN2 or GST-BRI1 kinase (200 ng each) in 20 μl of kinase buffer (20 mM Tris [pH 7.5], 100 mM NaCl, and 12 mM MgCl2) and 10 μCi ^32P-γATP. After incubation at 37° C. for 40 min, the reactions were stopped by adding 20 μl of 2×SDS buffer and boiling at 94° C. for 5 min. Proteins were resolved by a PAGE gel and phosphorylation was detected by exposing the dried gel to X-ray film. Proteins from 35S::bes1-GFP transgenic plants were used for phosphatase (CIP) treatments as described (Fankhauser et al., 1999).
Besides BIN2, nine additional GSK-3 kinases (also designated ASKs for Arabidopsis SHAGGY-related kinases) divided into four subgroups (I-IV) have been identified in Arabidopsis (Jonak and Hirt, 2002; Yoo et al. 2006). To determine the specificity of abrasin, its effect on the kinase activity of all ASKs was analyzed with myelin basic protein (MBP) as a general substrate.

In assay [2] the target is T2, AtMPK4 (Arabidopsis thaliana, UniProt Q39024).
T2 sequence (Q39024 1-376): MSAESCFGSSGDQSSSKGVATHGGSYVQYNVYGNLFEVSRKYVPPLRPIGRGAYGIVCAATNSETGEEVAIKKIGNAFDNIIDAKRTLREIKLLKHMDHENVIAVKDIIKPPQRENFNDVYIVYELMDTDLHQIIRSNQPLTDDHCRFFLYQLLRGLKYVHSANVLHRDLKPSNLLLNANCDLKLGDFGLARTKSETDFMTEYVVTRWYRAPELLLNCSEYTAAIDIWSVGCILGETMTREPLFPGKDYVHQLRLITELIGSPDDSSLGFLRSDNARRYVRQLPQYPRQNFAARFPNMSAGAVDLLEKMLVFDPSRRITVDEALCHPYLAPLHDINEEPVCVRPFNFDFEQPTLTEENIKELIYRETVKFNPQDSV
Kind of assay: Kinase assay with AtMPK4 and MBP as substrate. Conditions: 10 μM abrasin. The format is biochemical. As to the method:
Coomassie staining was used as a loading control. b, Autoradiography of kinase assays with nine ASKs with MBP as a substrate in the presence or absence of 10 μM abrasin. The second member of group IV, ASKκ, had no kinase activity and was not included in the analysis. c, Autoradiography of kinase assays with AtMPK4, AtMPK6 and MBP as a substrate (left) and with AtAUR1 kinase and histone H3 as a substrate (right) in the presence or absence of 10 μM abrasin.
For in vitro kinase assays, MBP, MBP-BES1, and MBP-bes1 (20 ng each) were incubated with GST-BIN2 or GST-BRI1 kinase (200 ng each) in 20 μl of kinase buffer (20 mM Tris [pH 7.5], 100 mM NaCl, and 12 mM MgCl2) and 10 μCi ^32P-γATP. After incubation at 37° C. for 40 min, the reactions were stopped by adding 20 μl of 2×SDS buffer and boiling at 94° C. for 5 min. Proteins were resolved by a PAGE gel and phosphorylation was detected by exposing the dried gel to X-ray film. […]
Besides BIN2, nine additional GSK-3 kinases (also designated ASKs for Arabidopsis SHAGGY-related kinases) divided into four subgroups (I-IV) have been identified in Arabidopsis (Jonak and Hirt, 2002; Yoo et al. 2006). To determine the specificity of abrasin, its effect on the kinase activity of all ASKs was analyzed with myelin basic protein (MBP) as a general substrate. […]

Consider `O=C(O)CCC(=O)Nc1ccc(Br)cn1` [abrasin, 4-[(5-bromo-2-pyridinyl)amino]-4-oxobutanoic acid], for which the figures for the “effect on kinase activity” value in assay [1] and in assay [2] were “not affected” and “no effect”, respectively.
